The results in this text go back to patent US20230014907A1, “INHIBITORS OF APOL1 AND METHODS OF USING SAME” (Vertex Pharmaceuticals Incorporated, priority 2020, published 2023).

The target in one test is T1, APOL1 G1 Protein (Homo sapiens, UniProt O14791, I384M/S342G).
T1 sequence (O14791 28-398 S342G/I384M): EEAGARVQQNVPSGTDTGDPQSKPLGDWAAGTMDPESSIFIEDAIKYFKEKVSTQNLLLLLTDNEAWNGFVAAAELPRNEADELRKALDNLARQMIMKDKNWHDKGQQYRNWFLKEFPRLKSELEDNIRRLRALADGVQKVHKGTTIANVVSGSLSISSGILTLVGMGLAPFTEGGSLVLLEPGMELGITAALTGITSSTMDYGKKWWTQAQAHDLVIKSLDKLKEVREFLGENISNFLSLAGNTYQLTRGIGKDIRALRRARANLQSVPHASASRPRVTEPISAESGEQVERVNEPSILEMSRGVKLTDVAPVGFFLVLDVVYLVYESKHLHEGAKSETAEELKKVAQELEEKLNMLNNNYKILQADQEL
Briefly: Trypanosoma brucei brucei Lysis Assay Using APOL1 Recombinant Protein (AlamarBlue viability). Conditions: read-out: Trypanosomal Assay (IC50). Type of test: cell-based. From the text:
Trypanosoma brucei brucei is a blood stream parasite to which human, gorillas and baboon are immune due to the presence of the APOL1 protein in their HDL particles. The protein is uptaken by the parasite via the TbHpHb receptor located in its flagellar pocket and is bonded by the Hpr protein contained in the HDL particles which triggers the receptor endocytosis by the parasite.
Following endocytosis, the formed vesicle containing the HDL particle matures from early to late endosome, and subsequently to lysosome. The concomitant pH change in the lumen of the vesicle triggers the insertion of the APOL1 protein into the membrane of the late endosome/lysosome and hereby triggers lysosomal membrane permeabilization and as a further downstream event, trypanosome lysis. Trypanosoma brucei brucei is sensitive to lysis by all three APOL1 variants (G0, G1, and G2).
The Trypanosoma brucei brucei lysis assay is a lysis assay of the parasite using recombinant APOL1 protein variant followed by a fluorescent detection method of viability by the addition of AlamarBlue reagent to the assay well, a general metabolic redox indicator (AlamarBlue assay).
Briefly, the AlamarBlue active compound, the resazurin, a blue, water soluble, non-toxic and cell permeable molecule, which can be followed by absorbance, is reduced by various metabolic pathways into resorufin, a red compound which can be followed by either absorbance or fluorescence. The assay allows the calculation of the percent viability (percent of living Trypanosomes remaining in each well) at the end of a lysis relative to the untreated condition by interpolation of fluorescent values (FLU) on a standard curve with a known amount of seeded trypanosome/well.
Trypanosoma brucei brucei (ATCC, Cat. No. PRA-382) • Lister 427 VSG 221 bloodstream form.
Thaw/Expansion Media (ATCC Medium 2834 Modified HMI-9 Medium)
Assay Media (No Phenol Red/No FBS): Make on Day of Use
Hypoxanthine Stock (100×)-9 (10×)
Equipment • E1-Clip Tip pipette 12 channel adjustable 2-125 μL, Cat. No. 4672070BT • ThermoFisher MultiDrop 384, Cat. No. 5840300 • Multidrop • Agilent Bravo, Cat. No. G5409A • Bravo • SpectraMax M5
Trypanosoma brucei brucei Culture
Step 2, Day 4 • Centrifuge at 800×g for 5 minutes at room temperature. • Resuspend in 1 mL media. • Make a 1:25 fold dilution (10 μL/240 μL media). • Count on a hemocytometer (after adding parasites). • Let sit for 1-2 minutes for the parasites to settle. • Count should be approximately 100 viable motile parasites/16 grid or approximately 25×10^6 parasites/flask. • Passage the parasites by adding 1×10^6 parasites/T75 flask in 20 mL media. • Passage the parasites by adding 2.33×10^6 parasites/T175 flask in 46.6 mL media. • For every T75 flask should make enough for approximately 1.5×384 well assay plates. • For every T175 flask should make enough for approximately 3.8×384 well assay plates.
Step 3, Day 6 • Centrifuge at 800×g for 5 minutes. • Resuspend in 3 mL assay media (No phenol red, no FBS) per 75 starting flask. • Resuspend in 7 mL assay media (No phenol red, no FBS) per 175 flask • Make a 1:25 fold dilution. • Count by hemocytometer. • Every T75 flask set up should have approximately 75×10^6 parasites/flask (verify doubling time=8.7 hours±1 hour). • Every T175 flask set up should have approximately 175×10^6 parasites/flask (verify doubling time=8.7 hours±1 hour). • Require 46×10^6 parasites per 384 well plate (at 120,000 parasites per well). […]
(In general: Resazurin is reduced to fluorescent resorufin, in cell work by metabolically active cells.)

A further test deals with T2, G1 APOL1 (Homo sapiens, UniProt O14791, I384M/S342G).
T2 construct: expressed in transfected cells
T2 sequence (O14791 28-398 S342G/I384M): T1 sequence (O14791 28-398 S342G/I384M)
Put plainly: Acute APOL1 Thallium Assay with Inducible Stable Clones of HEK 293 Cells. Type of test: cell-based. To be noted: HEK 293 inducible stable clones, G1 APOL1; read-out: Thallium Assay (IC50). In short, it runs like this: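 HEK293 T-Rex cells with a stable tetracycline-inducible G1 APOL1 construct (clone DC3.25) were induced with tetracycline at plating, 26000 cells per well, then incubated at 37° C. They were loaded with an AM-ester thallium-sensitive dye and stimulated with Tl+. The fluorescence rise measured Tl+ influx through APOL1 pores.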

Structures are written as SMILES.

As for `CC(NC(=O)CCc1c(-c2ccc(F)cc2)[nH]c2c(F)cc(F)cc12)c1ccn(C)n1` (racemic) [Compound 133], the half-maximal inhibitory concentration (IC50) (as a rule, the concentration that inhibits the measured activity by half) on APOL1 G1 Protein is above 1000 nM; on G1 APOL1, 250 to 1000 nM.
On to `C[C@H](O)CNC(=O)CCc1c(-c2ccc(F)cc2)[nH]c2ccc(F)cc12` [Compound 78], for which the IC50 at APOL1 G1 Protein and at G1 APOL1 was above 1000 nM each time.
For `O=C(CCc1c(-c2ccc(F)cc2)[nH]c2c(F)cc(F)cc12)N[C@H]1CCOC1=O` [Compound 187], the IC50 at APOL1 G1 Protein and on G1 APOL1 was below 250 nM in each case.
For `O=C(CCc1c(-c2ccc(F)cc2)[nH]c2c(F)cc(F)cc12)Nc1nnco1` [Compound 151], the IC50 at APOL1 G1 Protein and at G1 APOL1 was above 1000 nM throughout.
As to `CN(CC(N)=O)C(=O)CCc1c(-c2ccc(F)cc2)[nH]c2c(F)cc(F)cc12` [Compound 150], the IC50 on APOL1 G1 Protein and at G1 APOL1 was above 1000 nM in each case.
For `O=C(CCc1c(-c2ccc(F)cc2)[nH]c2c(F)cc(F)cc12)N[C@H]1CC[C@H](O)C1` [Compound 135], the IC50 on APOL1 G1 Protein and at G1 APOL1 was above 1000 nM each time.
As to `CC1(NC(=O)CCc2c(-c3ccc(F)cc3)[nH]c3ccc(F)cc23)COC1` [Compound 16], the figures for the IC50 at APOL1 G1 Protein and at G1 APOL1 were 250 to 1000 nM and above 1000 nM, respectively.
For `O=C(CCc1c(-c2ccc(F)cc2)[nH]c2c(F)cc(F)cc12)Nc1nccs1` [Compound 167] the same measures were above 1000 nM and above 1000 nM.
Regarding `CC(C)(C)OC(=O)NC1CCCN(C(=O)CCc2c(-c3ccc(F)cc3)[nH]c3ccc(F)cc23)C1` (stereo not shown) [Compound 66], the IC50 on APOL1 G1 Protein and on G1 APOL1 was above 1000 nM in each case.
Consider `O=C(CCc1c(-c2ccc(F)cc2)[nH]c2c(F)cc(F)cc12)NC1C(=O)Nc2ccc(F)cc21` (stereo not shown) [Compound 139], for which the IC50 on APOL1 G1 Protein and at G1 APOL1 was above 1000 nM in each case.
As for `CC(C#N)(CO)NC(=O)CCc1c(-c2ccc(F)cc2)[nH]c2ccc(F)cc12` (racemic) [Compound 33], the IC50 on APOL1 G1 Protein and on G1 APOL1 was above 1000 nM each time.
Take `O=C(CCc1c(-c2ccc(F)cc2)[nH]c2c(F)cc(F)cc12)N1CCCC1CCO` (stereo not shown) [Compound 136]: the IC50 on APOL1 G1 Protein and on G1 APOL1 was above 1000 nM in each case.
Regarding `NCCCCc1c(-c2ccc(F)cc2)[nH]c2c(F)cc(F)cc12` [Compound 511, 4-[5,7-difluoro-2-(4-fluorophenyl)-1H-indol-3-yl]butan-1-amine], the IC50 on APOL1 G1 Protein and at G1 APOL1 was below 250 nM each time.
Turning to `O=C(CCc1c(-c2ccc(F)cc2)[nH]c2c(F)ccc(F)c12)N[C@@H](CO)C(F)(F)F` [Compound 232, 3-[4,7-difluoro-2-(4-fluorophenyl)-1H-indol-3-yl]-N-[(1S)-2,2,2-trifluoro-1-(hydroxymethyl)ethyl]propanamide], the half-inhibitory concentration (IC50) at APOL1 G1 Protein and at G1 APOL1 was 250 to 1000 nM in each case.
Take `Cc1cc(NC(=O)CCc2c(-c3ccc(F)cc3)[nH]c3c(F)cc(F)cc23)no1` [Compound 180]: the 50% inhibitory concentration (IC50) on APOL1 G1 Protein and on G1 APOL1 was above 1000 nM throughout.
With `O=C(CCc1c(-c2ccc(F)cc2)[nH]c2ccc(F)cc12)NC(CO)C1CC1` (stereo not shown) [Compound 21], the IC50 on APOL1 G1 Protein and on G1 APOL1 was 250 to 1000 nM throughout.
On to `O=C(CCc1c(-c2ccc(F)cc2)[nH]c2c(F)cc(F)cc12)NC1CCCNC1=O` (stereo not shown) [Compound 113], for which the IC50 on APOL1 G1 Protein was 250 to 1000 nM; on G1 APOL1 it was above 1000 nM.
As for `Cc1cnc(NC(=O)CCc2c(-c3ccc(F)cc3)[nH]c3c(F)cc(F)cc23)o1` [Compound 172], the IC50 on APOL1 G1 Protein and at G1 APOL1 was above 1000 nM in each case.
In the case of `O=C(CCc1c(-c2ccc(F)cc2)[nH]c2c(F)cc(F)cc12)Nc1c[nH][nH]c1=O` [Compound 97], the IC50 at APOL1 G1 Protein is above 1000 nM; at G1 APOL1, 250 to 1000 nM.
`O=C(CCc1c(-c2ccc(F)cc2)[nH]c2ccc(F)cc12)NC1CONC1=O` (stereo not shown) [Compound 63]: the IC50 at APOL1 G1 Protein and at G1 APOL1 was above 1000 nM in each case.
As to `CC1(O)CCN(C(=O)CCc2c(-c3ccc(F)cc3)[nH]c3ccc(F)cc23)C1` (racemic) [Compound 88], the IC50 on APOL1 G1 Protein and on G1 APOL1 was above 1000 nM throughout.
As for `NC1CCN(C(=O)CCc2c(-c3ccc(F)cc3)[nH]c3ccc(F)cc23)C1` (stereo not shown) [Compound 49], the IC50 at APOL1 G1 Protein and at G1 APOL1 was above 1000 nM each time.
As to `CC[C@@H](CO)NC(=O)CCc1c(-c2ccc(F)cc2)[nH]c2ccc(F)cc12` [Compound 80], the IC50 at APOL1 G1 Protein and at G1 APOL1 was above 1000 nM in each case.
`O=C(CCc1c(-c2ccc(F)cc2)[nH]c2c(F)cc(F)cc12)N[C@H]1COC[C@@H]1O` [Compound 181]: the IC50 on APOL1 G1 Protein and on G1 APOL1 was above 1000 nM in each case.
Take `CC1(NC(=O)CCc2c(-c3ccc(F)cc3)[nH]c3c(F)cc(F)cc23)CCOC1=O` (racemic) [Compound 105]: the IC50 at APOL1 G1 Protein is 250 to 1000 nM; at G1 APOL1 it was above 1000 nM.
For the compound `C[C@@H](CO)N(C)C(=O)CCc1c(-c2ccc(F)cc2)[nH]c2c(F)cc(F)cc12` [Compound 149], the IC50 on APOL1 G1 Protein and at G1 APOL1 was above 1000 nM each time.
Turning to `O=C(CCc1c(-c2ccc(F)cc2)[nH]c2ccc(F)cc12)NC1(c2ccccc2)CC1` [Compound 65], the IC50 on APOL1 G1 Protein and at G1 APOL1 was above 1000 nM throughout.
`O=C(CCc1c(-c2ccc(F)cc2)[nH]c2ccc(F)cc12)N1CC(O)C1` [Compound 58]: the IC50 on APOL1 G1 Protein and on G1 APOL1 was above 1000 nM each time.
For `NCCCc1c(-c2ccc(F)cc2)[nH]c2c(F)cc(F)cc12` [Compound 504, 3-[5,7-difluoro-2-(4-fluorophenyl)-1H-indol-3-yl]propan-1-amine], the results for the IC50 at APOL1 G1 Protein and at G1 APOL1 were below 250 nM and 250 to 1000 nM, respectively.
On to `CC(C)C(CO)NC(=O)CCc1c(-c2ccc(F)cc2)[nH]c2ccc(F)cc12` (stereo not shown) [Compound 75], for which the 50% inhibitory concentration (IC50) at APOL1 G1 Protein and on G1 APOL1 was above 1000 nM in each case.
As to `CC(NC(=O)CCc1c(-c2ccc(F)cc2)[nH]c2c(F)cc(F)cc12)C(F)(F)F` (racemic) [Compound 115], the IC50 at APOL1 G1 Protein and at G1 APOL1 was 250 to 1000 nM in each case.
`NC(=O)[C@@H](CO)NC(=O)CCc1c(-c2ccc(F)cc2)[nH]c2c(F)cc(F)cc12` [Compound 98]: the figures for the IC50 at APOL1 G1 Protein and at G1 APOL1 were above 1000 nM and 250 to 1000 nM, respectively.
Consider `CC(=O)NCCCc1c(-c2ccc(F)cc2)[nH]c2c(Cl)cccc12` [Compound 508, N-[3-[7-chloro-2-(4-fluorophenyl)-1H-indol-3-yl]propyl]acetamide], for which the IC50 at APOL1 G1 Protein and on G1 APOL1 was 250 to 1000 nM throughout.
For `CC1(NC(=O)OC(C)(C)C)CCN(C(=O)CCc2c(-c3ccc(F)cc3)[nH]c3ccc(F)cc23)C1` (stereo not shown) [Compound 27], the 50% inhibitory concentration (IC50) on APOL1 G1 Protein and at G1 APOL1 was above 1000 nM each time.
As for `CON(C)C(=O)CCc1c(-c2ccc(F)cc2)[nH]c2ccccc12` [Compound 237], the IC50 at APOL1 G1 Protein was above 1000 nM.
Same read-out and setting: as for `O=C(CCc1c(-c2ccc(F)cc2)[nH]c2c(F)cc(F)cc12)N[C@H](CO)C(F)(F)F` [Compound 128], the figure is 250 to 1000 nM.
